Source: ChEMBL document CHEMBL1201862, “PubChem BioAssay data set” (2004)
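All cell lines were grown in 96-well plates and treated with compound for 48 hours. GI50: concentration for 50% inhibition of growth.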 The source made the active and inactive calls. Cut-off read from the data, not from the text of the source: active = GI50 up to about 1.1 µM and inactive = higher.

Columns and labels:
Test in all cases: DTP human tumour cell line panel, 48 h
[1] = test system: IGROV-1
[2] = test system: NCI-H23
[3] = test system: HCT-15
[4] = test system: SNB-19
[5] = test system: Malme-3M
[6] = test system: ACHN
[7] = test system: NCI-H226
[8] = test system: CAKI-1
[9] = test system: DU-145
[10] = test system: RPMI-8226
[11] = test system: HCC 2998
[12] = test system: NCI-H460
[13] = test system: HCT-116
[14] = test system: SF-539
[15] = test system: OVCAR-4
[16] = test system: M14
[17] = test system: BT-549
[18] = test system: SF-268
[19] = test system: HOP-92
[20] = test system: A498

SMILES	GI50 [1]	GI50 [2]	GI50 [3]	GI50 [4]	GI50 [5]	GI50 [6]	GI50 [7]	GI50 [8]	GI50 [9]	GI50 [10]	GI50 [11]	GI50 [12]	GI50 [13]	GI50 [14]	GI50 [15]	GI50 [16]	GI50 [17]	GI50 [18]	GI50 [19]	GI50 [20]
C[C@@]1(OC(=O)c2cc([N+](=O)[O-])cc([N+](=O)[O-])c2)C[C@@H]2CCCC[C@@H]21	> 100 µM (inactive)	> 100 µM (inactive)	> 100 µM	> 100 µM (inactive)	58.3 µM (inactive)	> 100 µM (inactive)	> 100 µM (inactive)	> 100 µM (inactive)	> 100 µM (inactive)	31.6 µM (inactive)	> 100 µM (inactive)	> 100 µM (inactive)	> 100 µM (inactive)	> 100 µM (inactive)	> 100 µM (inactive)	> 100 µM (inactive)	> 100 µM (inactive)	> 100 µM (inactive)	–	–
C[C@@]12c3c4ccc(C=O)c3Oc3ccc(C=O)c(c31)Oc1c(C=O)ccc(c12)O4	> 100 µM (inactive)	> 100 µM (inactive)	> 100 µM	> 100 µM (inactive)	> 100 µM (inactive)	> 100 µM (inactive)	> 100 µM (inactive)	–	–	> 100 µM (inactive)	> 100 µM (inactive)	> 100 µM (inactive)	> 100 µM (inactive)	> 100 µM (inactive)	> 100 µM (inactive)	> 100 µM (inactive)	> 100 µM (inactive)	> 100 µM (inactive)	0.565 µM (active)	31.5 µM (inactive)
COc1ccc(C(c2cc3c(cc2O)OCO3)N2CCOCC2)cc1OC (stereo not drawn)	14.9 µM (inactive)	4.15 µM (inactive)	3.95 µM	16.7 µM (inactive)	13.1 µM (inactive)	11.4 µM (inactive)	11.1 µM (inactive)	12.8 µM (inactive)	12.1 µM (inactive)	2.66 µM (inactive)	–	22 µM (inactive)	10.9 µM (inactive)	14.6 µM (inactive)	15.6 µM (inactive)	12.4 µM (inactive)	5.28 µM (inactive)	10.9 µM (inactive)	16 µM (inactive)	–
OCCCc1cnco1	> 100 µM (inactive)	> 100 µM (inactive)	> 100 µM	> 100 µM (inactive)	> 100 µM (inactive)	> 100 µM (inactive)	> 100 µM (inactive)	> 100 µM (inactive)	–	> 100 µM (inactive)	> 100 µM (inactive)	> 100 µM (inactive)	> 100 µM (inactive)	> 100 µM (inactive)	> 100 µM (inactive)	> 100 µM (inactive)	–	> 100 µM (inactive)	> 100 µM (inactive)	> 100 µM (inactive)
CC(C)(C)c1ccc(O)c(C(O)c2ccccn2)c1 (stereo not drawn)	> 10 µM (inactive)	56.1 µM (inactive)	35.4 µM	> 100 µM (inactive)	37.6 µM (inactive)	> 100 µM (inactive)	85.1 µM (inactive)	> 100 µM (inactive)	> 100 µM (inactive)	58.5 µM (inactive)	34.4 µM (inactive)	48.5 µM (inactive)	61.4 µM (inactive)	> 100 µM (inactive)	–	–	> 100 µM (inactive)	> 100 µM (inactive)	–	–
CC(C)c1cccc(C(C)C)c1N1C(=O)C(=O)C(c2nc3ccccc3o2)C(=O)C1=O	> 100 µM (inactive)	29.6 µM (inactive)	49.7 µM	> 100 µM (inactive)	91.4 µM (inactive)	> 100 µM (inactive)	19.2 µM (inactive)	40.5 µM (inactive)	–	35.4 µM (inactive)	24.3 µM (inactive)	> 100 µM (inactive)	25.8 µM (inactive)	> 100 µM (inactive)	78.2 µM (inactive)	55.8 µM (inactive)	–	47.2 µM (inactive)	33.3 µM (inactive)	> 100 µM (inactive)
O=C(CCCN1CCc2[nH]c3cc(F)ccc3c2C1)c1ccc(F)cc1	16.4 µM (inactive)	14.1 µM (inactive)	16.8 µM	> 100 µM (inactive)	12.6 µM (inactive)	13.8 µM (inactive)	18.7 µM (inactive)	> 100 µM (inactive)	13.3 µM (inactive)	10 µM (inactive)	3.33 µM (inactive)	10.9 µM (inactive)	11.8 µM (inactive)	16.7 µM (inactive)	13.8 µM (inactive)	9.82 µM (inactive)	–	13.1 µM (inactive)	2.26 µM (inactive)	11.8 µM (inactive)
CS/C(=N/C(=O)c1ccccc1)SCCS/C(=N\C(=O)c1ccccc1)SC	> 100 µM (inactive)	> 100 µM (inactive)	> 100 µM	> 100 µM (inactive)	> 100 µM (inactive)	> 100 µM (inactive)	> 100 µM (inactive)	> 100 µM (inactive)	–	> 100 µM (inactive)	> 100 µM (inactive)	> 100 µM (inactive)	> 100 µM (inactive)	65.5 µM (inactive)	25 µM (inactive)	> 100 µM (inactive)	–	> 100 µM (inactive)	20 µM (inactive)	> 100 µM (inactive)
Nc1ccc(C(=O)NN2C(=O)C(Cl)C2c2ccccc2)cc1 (stereo not drawn)	> 100 µM (inactive)	> 100 µM (inactive)	> 100 µM	> 100 µM (inactive)	> 100 µM (inactive)	> 100 µM (inactive)	> 100 µM (inactive)	> 100 µM (inactive)	–	> 100 µM (inactive)	> 100 µM (inactive)	> 100 µM (inactive)	> 100 µM (inactive)	> 100 µM (inactive)	> 100 µM (inactive)	> 100 µM (inactive)	–	> 100 µM (inactive)	> 100 µM (inactive)	> 100 µM (inactive)
O=Cc1cc2c(s1)C(=O)c1sccc1C2=O	1.49 µM (inactive)	0.191 µM (active)	0.381 µM	0.366 µM (active)	0.368 µM (active)	0.585 µM (active)	1.79 µM (inactive)	1.77 µM (inactive)	0.18 µM (active)	0.309 µM (active)	1.56 µM (inactive)	1.32 µM (inactive)	0.256 µM (active)	0.215 µM (active)	0.22 µM (active)	0.0403 µM (active)	–	0.247 µM (active)	1.46 µM (inactive)	1.37 µM (inactive)
S=C1CC(c2ccccc2)Sc2cc(Cl)ccc2N1 (stereo not drawn)	16 µM (inactive)	5.41 µM (inactive)	1.32 µM	10.8 µM (inactive)	6.28 µM (inactive)	9.46 µM (inactive)	14.2 µM (inactive)	7.71 µM (inactive)	> 100 µM (inactive)	43.5 µM (inactive)	–	6.59 µM (inactive)	3.03 µM (inactive)	–	13.2 µM (inactive)	3.12 µM (inactive)	8.79 µM (inactive)	6.84 µM (inactive)	–	–
COc1ccc(/C=C/c2ccnc3ccccc23)cc1OC	15.5 µM (inactive)	14.9 µM (inactive)	15.2 µM	17.4 µM (inactive)	16.9 µM (inactive)	24.2 µM (inactive)	22.9 µM (inactive)	15.8 µM (inactive)	13.7 µM (inactive)	28.1 µM (inactive)	39 µM (inactive)	15.2 µM (inactive)	12.6 µM (inactive)	15.8 µM (inactive)	12.3 µM (inactive)	20 µM (inactive)	–	14 µM (inactive)	–	11.5 µM (inactive)
O=C1C(=CNC(=S)c2ccccc2)C(=O)c2ccccc21	29.4 µM (inactive)	51.5 µM (inactive)	32.1 µM	93.8 µM (inactive)	–	38.9 µM (inactive)	> 100 µM (inactive)	71.4 µM (inactive)	57.8 µM (inactive)	25.2 µM (inactive)	37 µM (inactive)	70.8 µM (inactive)	46.7 µM (inactive)	58.5 µM (inactive)	38.1 µM (inactive)	65.6 µM (inactive)	28.1 µM (inactive)	71.8 µM (inactive)	40.7 µM (inactive)	–
COc1cc(Cc2nccc3cc(OC)c(OC)cc23)c(/N=N/N(C)C)cc1OC	13.5 µM (inactive)	19.3 µM (inactive)	5 µM	30.6 µM (inactive)	22.3 µM (inactive)	15.1 µM (inactive)	20.4 µM (inactive)	5.45 µM (inactive)	17.5 µM (inactive)	4.73 µM (inactive)	14.6 µM (inactive)	7.23 µM (inactive)	5.08 µM (inactive)	–	20.5 µM (inactive)	17.5 µM (inactive)	18.2 µM (inactive)	22.1 µM (inactive)	–	–
CCOC(=O)C(=O)/C(=C/n1c(=S)[nH]c2ccc([N+](=O)[O-])cc21)C(=O)OCC	–	> 100 µM (inactive)	–	> 100 µM (inactive)	–	> 100 µM (inactive)	60 µM (inactive)	> 100 µM (inactive)	> 100 µM (inactive)	> 100 µM (inactive)	> 100 µM (inactive)	> 100 µM (inactive)	> 100 µM (inactive)	> 100 µM (inactive)	> 100 µM (inactive)	> 100 µM (inactive)	–	> 100 µM (inactive)	> 100 µM (inactive)	> 100 µM (inactive)
COc1ccc(C(=O)O/N=C2/CCC/C2=C\c2ccccc2)cc1	> 73.6 µM (inactive)	> 100 µM (inactive)	> 100 µM	> 100 µM (inactive)	> 100 µM (inactive)	> 94.8 µM (inactive)	> 100 µM (inactive)	> 100 µM (inactive)	–	> 100 µM (inactive)	> 100 µM (inactive)	> 100 µM (inactive)	> 100 µM (inactive)	> 59.3 µM (inactive)	> 66.1 µM (inactive)	> 100 µM (inactive)	–	> 81.8 µM (inactive)	> 100 µM (inactive)	> 100 µM (inactive)
